Assay: in vitro
Details: human, hela cells, % viability

First: Cc1nc(C)c(C(=O)NCCN2CCCC2=O)s1 [CBK282222]
Second: Cc1cc2cc(CNCCCN3CCCC3=O)c(=O)[nH]c2cc1C [CBK282296]
The viability at 28.5 h, 10 µM of the first is higher: 84.2% for the first, 81.4% for the second.

First: Cc1nc(C)n(CCC(=O)NC(C)c2cccs2)n1 (stereo not shown) [CBK282224]
Second: CC(C)(C)C(=O)NCCn1nc(-c2cccs2)oc1=O [CBK282344]
The viability at 28.5 h, 10 µM of the first is lower: 105% for the first, 110% for the second.

Going from `CN1CC(c2ccccc2)C2(CCNCC2)C1` (stereo not shown) [CBK282225] to `C=CCNC(=O)C1CN(C)CC12CCc1ccccc1C(=O)N2` (stereo not shown) [CBK282401], the viability at 28.5 h, 10 µM falls from 105% to 83%.

Compared with `Cc1csc(C(Cc2ccsc2)NC(=O)C2CC2C)n1` (stereo not shown) [CBK282226], `Cc1csc(C(Cc2ccsc2)NC(=O)CC2CCCO2)n1` (stereo not shown) [CBK282227] is higher in viability at 28.5 h, 10 µM: 86.7% for the first, 92.1% for the second.

First: Cc1nc(C(Cc2ccsc2)NC(=O)C2CCCNC2)sc1C (stereo not shown) [CBK282228]
Second: C#CCNC(=O)C1CCCN(c2nc3ccccc3n2C)C1 (stereo not shown) [CBK282336]
The viability at 28.5 h, 10 µM of the first is lower: 87.6% for the first, 89.6% for the second.

First: Cc1nc(C2CCN(C(=O)c3ccncc3)CC2)c2sccn12 [CBK282235]
Second: Cc1nc(C2CCN(C(=O)c3ccccn3)CC2)c2sccn12 [CBK282238]
The viability at 28.5 h, 10 µM of the first is higher: 99.9% for the first, 91.6% for the second.

First: O=C(Cc1ccccn1)NC(Cc1cccs1)c1ccccn1 (stereo not shown) [CBK282243]
Second: CC(NC(=O)c1ncoc1-c1ccccc1Cl)c1ccccn1 (stereo not shown) [CBK282409]
The viability at 28.5 h, 10 µM of the first is lower: 93.1% for the first, 94.8% for the second.

First: CCn1cc(-c2cncn2CCCn2ccnc2C(C)C)cn1 [CBK282244]
Second: Cc1cccc(-c2ocnc2C(=O)NCCCn2ccnc2)c1 [CBK282418]
The viability at 28.5 h, 10 µM of the first is higher: 89.4% for the first, 80.1% for the second.

Compared with `Cn1ncc2c1CCCN(C(=O)c1ccccc1C(F)(F)F)C2` [CBK282251], `Cn1ncc2c1CCCN(C(=O)c1cccc(C(F)(F)F)c1)C2` [CBK282252] is higher in viability at 28.5 h, 10 µM: 84.1% for the first, 87.3% for the second.

Going from `Cn1cc(CN2C3CCC(C3)[C@@H]2COc2ccc(F)cc2)cn1` (stereo partly shown) [CBK282257] to `Cc1cc2ncc3c(n2n1)CC1CCC3N1Cc1ccccc1` (stereo not shown) [CBK282266], the viability at 28.5 h, 10 µM falls from 106% to 104%.

Compared with `Cc1nn(C)c(C)c1-c1ccc(=O)n(Cc2ccc(F)cc2)n1` [CBK282258], `Cc1nn(C)c(C)c1NC(=O)c1ncoc1-c1ccc(F)cc1` [CBK282359] is lower in viability at 28.5 h, 10 µM: 95.3% for the first, 87.7% for the second.

Compared with `CCCC(=O)N1CCCCC1c1c(-c2onc(C)c2C)cnn1C` (stereo not shown) [CBK282259], `Cc1ccnn1CCC(=O)N1CCCCC1c1nc2ccccc2[nH]1` (stereo not shown) [CBK282374] is higher in viability at 28.5 h, 10 µM: 94.7% for the first, 105% for the second.

Going from `O=C(CCn1cccn1)N1Cc2ccccc2CC1C1CCOCC1` (stereo not shown) [CBK282262] to `O=C(CCn1ncc2ccccc21)N1CCC(c2ccncc2)CC1` [CBK282395], the viability at 28.5 h, 10 µM falls from 83.8% to 82%.

Going from `CC(C(=O)NCCc1cn(C)c2ccc(Cl)cc12)N1CCOCC1` (stereo not shown) [CBK282263] to `CC(C)C(=O)N1CCC[C@@H](Cn2nc(-c3cccs3)ccc2=O)C1` [CBK282317], the viability at 28.5 h, 10 µM rises from 94.6% to 96.5%.

Going from `Cc1ncncc1C(=O)N1CCCCC1CCc1ccccc1` (stereo not shown) [CBK282264] to `Cc1nn(C)cc1C(=O)N1CCCC1c1nc2ccccc2[nH]1` (stereo not shown) [CBK282371], the viability at 28.5 h, 10 µM falls from 109% to 84.7%.

Going from `O=CN1C2CCC1c1cnc3cc(-c4cccc(F)c4)nn3c1C2` (stereo not shown) [CBK282269] to `Fc1cccc(-c2nc3cnccn3c2NCc2ccco2)c1` [CBK282323], the viability at 28.5 h, 10 µM rises from 91.9% to 93.5%.

Going from `O=C1NC2=C(C(=O)N(CC3CCCO3)C2)C(c2ccc(F)c(F)c2)N1` (stereo not shown) [CBK282271] to `O=C1NC2=C(C(=O)N(CCN3CCCC3)C2)C(c2cccc(F)c2)N1` (stereo not shown) [CBK282365], the viability at 28.5 h, 10 µM rises from 98% to 105%.

Going from `O=C(NC1CC1)c1ccc(-n2cccn2)c(C#Cc2ccccn2)c1` [CBK282272] to `O=C(NCCn1cccn1)c1ncoc1-c1ccc(F)cc1` [CBK282355], the viability at 28.5 h, 10 µM falls from 106% to 91.5%.

First: Cn1ccnc1C1(O)CCN(C(=O)Nc2ccc(F)cc2)CC1 [CBK282277]
Second: Cn1ccnc1C1(O)CCN(C(=O)Nc2cccc(F)c2)CC1 [CBK282279]
The viability at 28.5 h, 10 µM of the first is lower: 97.4% for the first, 109% for the second.

Compared with `Cn1ccnc1C1(O)CCN(C(=O)Nc2ccccc2Cl)CC1` [CBK282278], `Cc1cccnc1C1(O)CCN(C(=O)NCc2ccccc2)CC1` [CBK282293] is lower in viability at 28.5 h, 10 µM: 89.3% for the first, 88% for the second.

Going from `CCCNC(=O)N1CCC(n2cnc3cccnc32)CC1` [CBK282282] to `CCCNC(=O)N1CCC(n2c(C)nc3cccnc32)CC1` [CBK282292], the viability at 28.5 h, 10 µM rises from 84.3% to 88.9%.

First: CN(C)CCn1c([C@@H]2CCCO2)cc2cccnc21 [CBK282288]
Second: CCn1c(=O)n(CC(=O)N(C)C)c2cccnc21 [CBK282299]
The viability at 28.5 h, 10 µM of the first is higher: 105% for the first, 89.1% for the second.

Going from `O=c1c2sccc2nc2n1CCN(Cc1ccc(F)c(F)c1)CC2` [CBK282295] to `C=CCn1cc(CN2CCc3nc(C)[nH]c(=O)c3C2)c2ccccc21` [CBK282376], the viability at 28.5 h, 10 µM falls from 103% to 85.9%.

First: CCOC(=O)C1(Cc2ccccc2-c2ccncc2)CCNCC1 [CBK282297]
Second: Cc1c(C(=O)N2CCC(c3ccncc3)CC2)oc2ccccc12 [CBK282413]
The viability at 28.5 h, 10 µM of the first is lower: 88.8% for the first, 109% for the second.

First: O=C(NCCn1nc2c(cc1=O)CCCCC2)c1ccccc1F [CBK282300]
Second: O=C(C1CCCC1)N1CCc2nc(-c3ccccc3)[nH]c(=O)c2C1 [CBK282331]
The viability at 28.5 h, 10 µM of the first is lower: 89.3% for the first, 99% for the second.

Compared with `CC(C)(C)OC(=O)N1CCC[C@H]([C@H](O)c2cccs2)C1` [CBK282301], `Cn1c(N2CCCC(C(N)=O)C2)nc2ccccc21` (stereo not shown) [CBK282372] is higher in viability at 28.5 h, 10 µM: 102% for the first, 105% for the second.

Going from `C[C@@H](Cn1nnc2ccccc21)NC(=O)Cc1ccccc1F` [CBK282305] to `CC(C)[C@@H](Cn1nnc2ccccc21)NC(=O)c1ccco1` [CBK282335], the viability at 28.5 h, 10 µM rises from 86.1% to 108%.

Compared with `Cc1cc(C(=O)NC2CCCc3c2cnn3-c2ccc(F)cc2)on1` (stereo not shown) [CBK282310], `COc1ccc(-n2ncc3c2CC(C)(C)CC3NC(=O)C2CC2)cc1` (stereo not shown) [CBK282337] is lower in viability at 28.5 h, 10 µM: 108% for the first, 91.1% for the second.

First: O=C1NCC(C2CCN(Cc3ccccc3)CC2)Oc2ccccc21 (stereo not shown) [CBK282314]
Second: O=C(C1=Cc2ccccc2OC1)N1CCC(c2ccncc2)CC1 [CBK282339]
The viability at 28.5 h, 10 µM of the first is lower: 85.9% for the first, 104% for the second.

Going from `CC(NC(=O)c1ncoc1-c1ccc(F)cc1)c1ccncc1` (stereo not shown) [CBK282319] to `CC(NC(=O)c1ncoc1-c1ccc(F)cc1)c1cccnc1` (stereo not shown) [CBK282358], the viability at 28.5 h, 10 µM rises from 100% to 103%.

Going from `CC(C)[C@@H](Cn1nc(C2CC2)ccc1=O)NC(=O)c1ccco1` [CBK282321] to `CC(C)C(=O)N1CCC(n2nc(C3CC3)ccc2=O)CC1` [CBK282351], the viability at 28.5 h, 10 µM rises from 88.3% to 104%.

First: O=C(c1ccc(F)cc1)[C@H]1CCCN(C(=O)c2n[nH]c3c2CCC3)C1 [CBK282322]
Second: O=C(c1ncoc1-c1ccc(F)cc1)N1CCN2CCCC2C1 (stereo not shown) [CBK282399]
The viability at 28.5 h, 10 µM of the first is lower: 86.7% for the first, 90.1% for the second.

Compared with `COc1ccc(CNC(=O)[C@H]2C=CCN2C(=O)c2cccs2)cc1` [CBK282325], `COc1ccc(CNC(=O)[C@H]2C=CCN2C(=O)C2CC2)cc1` [CBK282326] is higher in viability at 28.5 h, 10 µM: 103% for the first, 109% for the second.

Going from `Cc1nc2c(c(=O)[nH]1)CN(Cc1c[nH]c3ccccc13)CC2` [CBK282327] to `C=CCn1c(C)c(CN2CCc3nc(C)[nH]c(=O)c3C2)c2ccccc21` [CBK282375], the viability at 28.5 h, 10 µM falls from 102% to 97.3%.

First: CCS(=O)(=O)N1CC2C3c4ccccc4C(c4ccccc43)C2C1 (stereo not shown) [CBK282328]
Second: CC(C(=O)N1CCC(O)(c2ccccn2)CC1)c1ccccc1 (stereo not shown) [CBK282396]
The viability at 28.5 h, 10 µM of the first is lower: 98.5% for the first, 102% for the second.

First: Fc1ccccc1-c1nc2cnccn2c1NCc1cccs1 [CBK282332]
Second: O=C(NCc1ccccn1)c1ncoc1-c1ccc(F)cc1 [CBK282352]
The viability at 28.5 h, 10 µM of the first is higher: 90.3% for the first, 79.6% for the second.

Going from `Cc1nc2c(c(=O)[nH]1)CCN(Cc1cc(C)n(C3CC3)c1C)C2` [CBK282338] to `Cc1nc2c(c(=O)[nH]1)CN(C1CCCCC1)CC2` [CBK282416], the viability at 28.5 h, 10 µM falls from 89.2% to 82.2%.

First: CCn1cc(C(=O)NC2CC3(CCCC3)Oc3ccccc32)c(C)n1 (stereo not shown) [CBK282340]
Second: O=C(NC1CC2(CCCC2)Oc2ccccc21)C1CCCO1 (stereo not shown) [CBK282420]
The viability at 28.5 h, 10 µM of the first is lower: 91.2% for the first, 110% for the second.

Going from `O=C(NCCn1nc(-c2cccs2)oc1=O)C1CCCC1` [CBK282345] to `O=C(CC1CCCC1)NCCn1nc(-c2cccs2)oc1=O` [CBK282386], the viability at 28.5 h, 10 µM falls from 105% to 87.2%.

Going from `CCN(CC)C(=O)Cn1c(=O)n(CC)c2ncccc21` [CBK282347] to `CCOC(=O)Cn1ncc2c3sc(C)cc3n(C)c2c1=O` [CBK282388], the viability at 28.5 h, 10 µM falls from 107% to 96.2%.

First: C=CCNC(=O)[C@H]1C=CCN1C(=O)Nc1ccccc1Cl [CBK282348]
Second: CCn1c(N2CCCC(C(=O)NC3CC3)C2)nc2ccccc21 (stereo not shown) [CBK282419]
The viability at 28.5 h, 10 µM of the first is lower: 99% for the first, 106% for the second.

Compared with `O=C(NCc1ccncc1)c1ncoc1-c1ccc(F)cc1` [CBK282354], `CCCn1nc(C)cc1NC(=O)c1ncoc1-c1ccc(F)cc1` [CBK282361] is higher in viability at 28.5 h, 10 µM: 83.8% for the first, 88.7% for the second.

Going from `CCn1nc(C)c(NC(=O)c2ncoc2-c2ccc(F)cc2)c1C` [CBK282360] to `CC1CN(C(=O)c2ncoc2-c2ccc(F)cc2)CC(C)O1` (stereo not shown) [CBK282379], the viability at 28.5 h, 10 µM rises from 88% to 90%.

First: CCc1c(C)sc2ncn(C3CCN(C(=O)C(C)C)CC3)c(=O)c12 [CBK282377]
Second: Cc1sc2nc(C(C)C)n(C3CCNCC3)c(=O)c2c1C [CBK282407]
The viability at 28.5 h, 10 µM of the first is lower: 81.1% for the first, 100% for the second.

First: O=C(c1csc2c1CCCC2)N1CCC(O)(c2ccccn2)CC1 [CBK282397]
Second: O=C(C1CCCC1)N1CCC(n2nc(-c3cccs3)oc2=O)CC1 [CBK282424]
The viability at 28.5 h, 10 µM of the first is higher: 107% for the first, 87.5% for the second.

Going from `CC(=O)N1CCCN(C(=O)c2ncoc2-c2ccc(F)cc2)CC1` [CBK282398] to `O=C(c1cc(C2CC2)on1)N1CCn2cc(C(F)(F)F)nc2C1` [CBK282425], the viability at 28.5 h, 10 µM rises from 85.2% to 85.4%.

With `O=C(NCCCn1ccnc1)c1ncoc1-c1cccs1` [CBK282404] the viability at 28.5 h, 10 µM was 92.7%.

Same assay, conditions: human, hela cells, % viability, bulk resorufin, single well

Work on `CC[C@H](N)Cn1nc(-c2cccs2)oc1=O` [CBK282393] yielded a viability at 28.5 h, 10 µM of 82.6%.

— PMC12040169 (PLOS Biology, 2025)
